{"source": "patent US20210369669A1", "about": "“AUTOPHAGY ACTIVATORS AND INHIBITORS OF FERROPTOSIS FOR PREVENTING ACUTE RENAL FAILURE AND NEUROTOXCITY INDUCED BY CERTAIN ANTIBIOTICS” (SystaMedic Inc., priority 2018, published 2021)", "key": {"[1]": {"tested_on": "cisplatin-induced renal damage", "details": "rats; cited from earlier work"}, "[2]": {"tested_on": "rat model of acute renal injury (colistin-induced)", "assay": "Colistin-induced acute renal injury in rats: serum creatinine and urea", "format": "in vivo", "method": "Rats were injected I.P. on the left side of the animals with a 30 mg/kg dose of colistin once a day for eight consecutive days."}, "mouse N2a neuronal cells": {"tested_on": "mouse N2a neuronal cells", "details": "cited from earlier work"}, "[3]": {"tested_on": "mouse model of renal injury (colistin-induced)", "assay": "Colistin-induced acute renal injury, mouse model", "format": "in vivo", "details": "very low doses of zileuton"}, "[4]": {"details": "monkeys; estimated from oral studies; from U.S. Pat. No. 5,629,337; cited from earlier work"}, "[5]": {"details": "dogs; estimated from oral studies; from U.S. Pat. No. 5,629,337; cited from earlier work"}, "[6]": {"tested_on": "central and peripheral nerve tissues", "details": "colistin 15 mg/kg/day for 7 days in mice; cited from earlier work"}, "[7]": {"details": "rat serum, day 1 prior to dosing, colistin 30 mg/kg I.P. once a day, zileuton 3 mg/kg I.P., edaravone 15 mg/kg I.P. or atorvastatin 25 mg/kg P.O."}, "[8]": {"details": "rat serum, day 4, colistin 30 mg/kg I.P. once a day, zileuton 3 mg/kg I.P., edaravone 15 mg/kg I.P. or atorvastatin 25 mg/kg P.O."}, "[9]": {"details": "rat serum, day 8, colistin 30 mg/kg I.P. once a day, zileuton 3 mg/kg I.P., edaravone 15 mg/kg I.P. or atorvastatin 25 mg/kg P.O."}}, "note": "Where two headings read alike, the source gives them in different places.", "data": [{"molecule": "CC1=NN(c2ccccc2)C(=O)C1", "note": "[edaravone, 5-methyl-2-phenyl-4H-pyrazol-3-one]", "values": [{"measurement": "Protection against cisplatin-induced renal damage", "setting": "[1]", "result": "protect rats against cisplatin-induced renal damage"}]}, {"molecule": "CC(C)c1c(C(=O)Nc2ccccc2)c(-c2ccccc2)c(-c2ccc(F)cc2)n1CC[C@@H](O)C[C@@H](O)CC(=O)O", "note": "[atorvastatin]", "values": [{"measurement": "Effect on colistin-induced elevation of creatinine and urea levels", "setting": "[2]; colistin 3 mg/kg/diem over eight days, rats", "result": "blocks the elevation of creatinine and urea levels"}]}, {"molecule": "CCN(CC)CCCC(C)Nc1ccnc2cc(Cl)ccc12", "note": "(centres unmarked) [chloroquine]", "values": [{"measurement": "Effect on colistin-induced apoptosis", "setting": "mouse N2a neuronal cells; inhibition of autophagy by chloroquine", "result": "enhances colistin-induced apoptosis"}]}, {"molecule": "CC(c1cc2ccccc2s1)N(O)C(N)=O", "note": "(racemic) [zileuton, (±) 1-[1-(1-benzothiophen-2-yl)ethyl]-1-hydroxyurea]", "values": [{"measurement": "Inhibition of colistin-induced acute renal injury", "setting": "[2]; very low doses of zileuton, rat model", "result": "potent inhibition"}, {"measurement": "Effect on colistin-induced elevation of creatinine and urea levels", "setting": "[2]; zileuton I.P. around 3 mg/kg, colistin 30 mg kg, rat", "result": "blocks the elevation of creatinine and urea levels"}, {"measurement": "Inhibition of colistin-induced acute renal injury", "setting": "[3]", "result": "potent inhibition"}, {"measurement": "elimination half-life", "setting": "[4]", "result": 0.333, "unit": "h"}, {"measurement": "elimination half-life", "setting": "[5]", "result": 7, "unit": "h"}, {"measurement": "Protection against cisplatin-induced renal damage", "setting": "[1]", "result": "protect rats against cisplatin-induced renal damage"}]}, {"molecule": "Colistin Sulfate", "values": [{"measurement": "Mean Creatinine Day 1", "setting": "[2]; [7]", "result": 0.44, "unit": "mg/dL"}, {"measurement": "Mean Urea Day 1", "setting": "[2]; [7]", "result": 37, "unit": "mg/dL"}, {"measurement": "Mean Creatinine Day 4", "setting": "[2]; [8]", "result": 0.71, "unit": "mg/dL"}, {"measurement": "Mean Urea Day 4", "setting": "[2]; [8]", "result": 69, "unit": "mg/dL"}, {"measurement": "Mean Creatinine Day 8", "setting": "[2]; [9]", "result": 0.96, "unit": "mg/dL"}, {"measurement": "Mean Urea Day 8", "setting": "[2]; [9]", "result": 85, "unit": "mg/dL"}]}, {"molecule": "colistin", "values": [{"measurement": "Mitochondrial dysfunction in nerve tissues", "setting": "[6]", "result": "induced mitochondrial dysfunction in central and peripheral nerve tissues"}, {"measurement": "Apoptosis of neuronal cells", "setting": "mouse N2a neuronal cells; 200 μM colistin for 24 h", "result": "become apoptotic"}]}]}
